Laboratory results: patent US9828350B2, “5,6-dihydro-2H-[1,4]oxazin-3-yl-amine derivatives useful as inhibitors of beta-secretase (BACE)” (Janssen Pharmaceutica NV, priority 2010, dated 2017)

Tests used:
[1] = target: recombinant BACE1 protein (Homo sapiens, UniProt P56817); experiment: Biochemical FRET based assay; conditions: recombinant BACE1 1 μg/ml, 120 minutes at room temperature, pH 5.0; for IC50: read-out: Biochemical FRET based assay pIC50 (converted)
Outline: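 Proteolysis was read as the rise in donor fluorescence (320 nm excitation, 405 nm emission) from T0 to T120, expressed in RFU. The reaction ran 120 minutes at room temperature at pH 5.0 in citrate buffer with 4% DMSO, using […] quenched Swedish APP peptide and 1 μg/ml BACE1.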

Abeta 1-42 = experiment: Cellular αLisa assay in SKNBE2 cells, Abeta 1-42; type: cell-based, human; conditions: incubated for 18 hours; for IC50: Homo sapiens, SKNBE2, 18 h, read-out: Cellular αLisa assay in SKNBE2 cells Abeta 42 pIC50 (converted)
Outline: (§1)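 Secreted Abeta levels were measured by sandwich αLisa, pairing biotin-AbN/25 donor beads with Ab4G8 acceptor beads for total Abeta or cAb42/26 for Abeta 1-42, read at 615 nm after 650 nm excitation following 1 hour. Cells were SKNBE2 expressing wild-type hAPP695, exposed to compound for 18 hours.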

Abeta total = experiment: Cellular αLisa assay in SKNBE2 cells, Abeta total; type: cell-based, human; conditions: incubated for 18 hours; for IC50: Homo sapiens, SKNBE2, 18 h, read-out: Cellular αLisa assay in SKNBE2 cells Abetatotal pIC50 (converted)
Outline: as §1

Sequence of recombinant BACE1 protein (P56817 46-501): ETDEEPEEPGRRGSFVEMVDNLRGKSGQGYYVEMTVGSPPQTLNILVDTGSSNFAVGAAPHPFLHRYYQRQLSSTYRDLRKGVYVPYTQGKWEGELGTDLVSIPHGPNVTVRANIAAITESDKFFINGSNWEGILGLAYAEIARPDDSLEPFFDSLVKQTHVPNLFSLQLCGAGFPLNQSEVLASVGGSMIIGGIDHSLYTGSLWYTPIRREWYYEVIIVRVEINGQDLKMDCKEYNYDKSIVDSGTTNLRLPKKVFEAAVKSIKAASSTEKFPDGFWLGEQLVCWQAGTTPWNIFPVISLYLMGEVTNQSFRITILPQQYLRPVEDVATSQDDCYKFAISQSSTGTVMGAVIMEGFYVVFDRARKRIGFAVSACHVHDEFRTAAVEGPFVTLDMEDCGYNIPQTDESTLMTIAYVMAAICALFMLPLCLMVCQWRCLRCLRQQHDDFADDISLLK

SMILES	IC50 [1]	Cellular αLisa assay in SKNBE2 cells Abeta 42 pIC50 (Abeta 1-42)	Cellular αLisa assay in SKNBE2 cells Abetatotal pIC50 (Abeta total)	IC50 (Abeta 1-42)	IC50 (Abeta total)	Biochemical FRET based assay pIC50 [1]
Cc1ccc(C(=O)Nc2cccc(C3(C)N=C(N)COC3(F)C(F)(F)F)c2)nc1 (single isomer, unassigned) [Compound 194]	2000 nM	6.08	6.13	–	–	–
COc1cnc(C(=O)Nc2ccc(F)c([C@@]3(C)N=C(N)CO[C@@]3(F)C(F)(F)F)c2)cn1 [Compound 180]	44.7 nM	–	–	33.9 nM	28.2 nM	–
CC1(c2cccc(NC(=O)c3ccc(Cl)cn3)c2)N=C(N)COC1F (single isomer, unassigned) [Compound 122]	–	5.19	5.04	–	–	<4.52
NC1=N[C@@](c2cccc(NC(=O)c3ncc(Cl)cc3F)c2)(C2CC2)[C@@H](F)OC1 [Compound 250, (2R,3R)—N-[3-(5-amino-3-cyclopropyl-2-fluoro-3,6-dihydro-2H-1,4-oxazin-3-yl)phenyl]-5-chloro-3-fluoropyridine-2-carboxamide]	60.3 nM	–	–	43.7 nM	39.8 nM	–
COc1cnc(C(=O)Nc2cccc(C3(C)N=C(N)COC3F)c2)cn1 (single isomer, unassigned) [Compound 131]	35.5 nM	7.54	7.52	–	–	–
COc1cncc(-c2cc(C3(C)COCC(N)=N3)c(F)cc2F)c1 (racemic) [Compound 66]	–	6.92	7.0	–	–	5.69
CC1(c2cccc(-c3cncnc3)c2)N=C(N)COC1F (single isomer, unassigned) [Compound 95]	1410 nM	6.48	6.5	–	–	–
NC1=N[C@@](c2cccc(-c3cncnc3)c2)(C2CC2)[C@@H](C(F)(F)F)OC1 [Compound 286]	851 nM	–	–	158 nM	155 nM	–
N#Cc1ccc(C(=O)Nc2ccc(F)c(C3(C4CC4)N=C(N)COC3F)c2)nc1 (stereo not drawn) [Compound 215]	–	6.51	6.52	–	–	6.3
CC1(c2cc(-c3cncnc3)ccc2F)COCC(N)=N1 (single isomer, unassigned) [Compound 53]	–	5.28	<5	–	–	<4.52
CC#Cc1cncc(-c2ccc(F)c(C3(C4CC4)N=C(N)COC3F)c2)c1 (stereo not drawn) [Compound 292]	–	5.98	6.17	–	–	6.17
NC1=N[C@@](c2cccc(NC(=O)c3ncc(Cl)cc3F)c2)(C2CC2)[C@H](F)OC1 [Compound 249, (2S,3R)—N-[3-(5-amino-3-cyclopropyl-2-fluoro-3,6-dihydro-2H-1,4-oxazin-3-yl)phenyl]-5-chloro-3-fluoropyridine-2-carboxamide]	219 nM	–	–	89.1 nM	81.3 nM	–
C[C@]1(c2cccc(NC(=O)c3ncc(C#N)cc3Cl)c2)N=C(N)CO[C@@]1(F)C(F)(F)F [Compound 246]	316 nM	–	–	120 nM	102 nM	–
CC#Cc1cncc(-c2ccc(F)c([C@@]3(C4CC4)N=C(N)CO[C@H]3F)c2)c1 [Compound 293]	1380 nM	–	–	1860 nM	1550 nM	–
Cc1ccc(C(=O)Nc2cccc(C3(C)N=C(N)COC3(F)C(F)(F)F)c2)nc1 (single isomer, unassigned) [Compound 193]	74.1 nM	7.19	7.23	–	–	–
NC1=N[C@@](c2cccc(NC(=O)c3ncc(Cl)cc3Cl)c2)(C2CC2)[C@@H](F)OC1 [Compound 256]	42.7 nM	–	–	28.8 nM	26.3 nM	–
CCC1(c2cc(NC(=O)c3ncc(C#N)cc3Cl)ccc2F)N=C(N)COC1C(F)(F)F (stereo not drawn) [Compound 284]	87.1 nM	–	–	17.8 nM	17.4 nM	–

SMILES	IC50 [1]	Cellular αLisa assay in SKNBE2 cells Abeta 42 pIC50 (Abeta 1-42)	Cellular αLisa assay in SKNBE2 cells Abetatotal pIC50 (Abeta total)	IC50 (Abeta 1-42)	IC50 (Abeta total)	Biochemical FRET based assay pIC50 [1]
C[C@]1(c2cc(-c3cncnc3)c(F)cc2F)COCC(N)=N1 [Compound 155]	–	<5	<5	–	–	<4.52
CC1(c2cccc(NC(=O)c3ccncn3)c2)N=C(N)COC1(F)C(F)(F)F (single isomer, unassigned) [Compound 188]	437 nM	6.91	6.93	–	–	–
CC1(c2cc(NC(=O)c3ccncn3)ccc2F)COCC(N)=N1 (stereo not drawn) [Compound 28]	–	7.07	7.04	–	–	6.18
NC1=N[C@@](c2cccc(NC(=O)c3cnc(OCC(F)(F)F)cn3)c2)(C2CC2)[C@H](F)OC1 [Compound 274]	263 nM	–	–	120 nM	120 nM	–
COc1cncc(-c2cccc(C3(C)N=C(N)COC3C(F)(F)F)c2)c1 (single isomer, unassigned) [Compound 101]	178 nM	7.71	7.7	–	–	–
N#Cc1ccc(C(=O)Nc2cccc([C@@]3(C4CC4)N=C(N)CO[C@H]3F)c2)nc1 [Compound 280]	182 nM	–	–	58.9 nM	57.5 nM	–
COc1cc(Cl)ccc1C(=O)Nc1ccc(F)c([C@]2(C)COCC(N)=N2)c1 [Compound 45]	–	6.85	6.92	–	–	5.53
CC1(c2cc(NC(=O)c3ncc(Cl)cn3)ccc2F)COCC(N)=N1 (stereo not drawn) [Compound 144]	–	7.27	7.38	–	–	7.11
C[C@]1(c2cc(NC(=O)c3ccncn3)ccc2F)N=C(N)CO[C@H]1C(F)(F)F [Compound 168]	832 nM	–	–	79.4 nM	74.1 nM	–
CC1(c2cc(-c3cc(Cl)cc(Cl)c3)ccn2)COCC(N)=N1 (racemic) [Compound 121]	–	6.43	6.48	–	–	5.73
CC1(c2cccc(-c3cncnc3)c2)N=C(N)COC1F (single isomer, unassigned) [Compound 97]	6170 nM	6.86	6.87	–	–	–
C[C@]1(c2cc(NC(=O)c3ncc(Cl)cc3F)ccc2F)N=C(N)CO[C@H]1C(F)(F)F [Compound 260]	47.9 nM	–	–	6.61 nM	6.46 nM	–
C[C@]1(c2cc(NC(=O)c3ncc(C#N)cc3Cl)ccc2F)N=C(N)CO[C@]1(F)C(F)(F)F [Compound 306]	36.3 nM	–	–	6.92 nM	7.41 nM	–
COc1cncc(-c2ccc(F)c(C3(C)COCC(N)=N3)c2)c1 (single isomer, unassigned) [Compound 56]	–	7.02	7.1	–	–	5.69
C[C@]1(c2ccnc(-c3cc(Cl)cc(Cl)c3)c2)N=C(N)CO[C@@H]1F (single isomer, unassigned) [Compound 277, (5R*,6R*)-5-[2-(3,5-dichlorophenyl)pyridin-4-yl]-6-fluoro-5-methyl-5,6-dihydro-2H-1,4-oxazin-3-amine]	219 nM	–	–	107 nM	112 nM	–
C[C@H]1OC[C@@](C)(c2cccc(NC(=O)c3ccc(Cl)cn3)c2)N=C1N (racemic) [Compound 151, cis-rac-N-[3-(5-Amino-3,6-dimethyl-3,6-dihydro-2H-1,4-oxazin-3-yl)phenyl]-5-chloropyridine-2-carboxamide]	–	7.8	7.83	–	–	6.4
